How the values were obtained:
Assay type in all cases: biochemical
succinylated elastin = assay: Protease assay using succinylated elastin substrate with TNBSA detection; details: 37° C., 1 hour; for corrected absorbance at 450 nm, substrate Elastin: 100 μg succinylated elastin
Protocol: (§1) Assay Conditions. Elastase assay using succinylated elastin: A modified version of the method described in the Pierce Quanticleave™ protease assay kit II (Pierce Chemical Co.) was used for the elastase assay. The assay contained 100 μg of succinylated substrate (gelatin, elastin, or casein) and 50 μl of enzyme sample to be assayed, and the reaction was brought up to a final volume of 150 μl with BupH buffer or 50 mM sodium borate, pH 8.0 (50 mM sodium borate, pH 8.0, is a suitable substitute for BupH buffer). All reactions were prepared in 96-well Falcon 3097 flat-bottom microtiter plates (Beckton Dickinson, N.J.) The reactions were then incubated at 37° C. for 60 min. Fifty microliters of a 0.03% solution of TNBSA was then added to each reaction and left for 20 min at room temperature. The optical density of each reaction was then determined using a Bio-Whittaker microplate reader 2001 (Bio-Whittaker, Walkersville, Md.) at 450 nm. Blank reactions were also prepared which contained buffer and protease, buffer and substrate and buffer only. All sample dilutions were prepared in BupH buffer or 50 mM sodium borate buffer, pH 8.0, as were stock solutions of 1 mg/ml elastase and trypsin.
(§2) Comparison of Elastase and Trypsin Substrate Affinities. […] and 1 μg/ml of elastase and trypsin were assayed using succinylated elastin, gelatin, and casein substrate. Enzyme dilutions were prepared from a 1 mg/ml stock of trypsin and elastase in BupH buffer or 50 mM sodium borate, pH 8.0. Assays contained 50 μl enzyme and 100 μg succinylated substrate and were made up to a volume of 150 μl with BupH buffer or 50 mM sodium borate buffer, pH 8.0. Digests were incubated at 37° C. for 1 hour. All digests were prepared in duplicate and optical densities were measured at 450 nm. Blank reaction contained buffer/enzyme. Blank reading was subtracted from the final reaction optical density to give corrected absorbance values. Standard deviations are given in parentheses. The activity of elastase varies with substrate in the following order: elastin>casein>gelatin. The activity of trypsin varies with substrate in the following order: gelatin>casein>elastin. Substrate affinity was evaluated by the level of absorbance at 450 nm each protease generated with each substrate.
(§3) Comparison of Succinyl Elastin with SANA. The sensitivity of the succinylated elastin assay was compared to an elastase assay that uses SANA, a synthetic elastase substrate. 50 μl of 1000, 100, 10 and 1 ng/ml elastase was used to digest 100 μg of succinylated elastin and 12 μl of 12 mM SANA. The succinylated elastin digest was carried out at 37° C. for 1 hour. The SANA elastase assay was carried out at room temperature for 20 minutes. Optical densities were measured at 450 nm for succinylated elastin assay and 405 nm for SANA elastase assay. Blank reaction contained buffer/enzyme. Blank reading was subtracted from the final reaction optical density to give corrected absorbance values. Standard deviations are given in parentheses.

succinylated casein = assay: Protease assay using succinylated casein substrate with TNBSA detection; details: 100 μg succinylated casein, 37° C., 1 hour
Protocol: as §1, §2

succinylated gelatin = assay: Protease assay using succinylated gelatin substrate with TNBSA detection; details: 100 μg succinylated gelatin, 37° C., 1 hour
Protocol: as §1, §2

[1] = Elastase assay using Suc(Ala)3-nA (SANA); details: room temperature, 20 minutes
Protocol: Elastase assay using Suc(Ala)3-nA (SANA). The following method was used for testing PPE (CalBio-chem) activity. A 25 mM stock solution of SANA (Sigma) in dimethyl sulfoxide (Sigma), 1 mg/ml stock solution of elastase in distilled water, and 0.2 M Tris buffer pH 8.0 with 0.1% Triton X-100(Sigma) was prepared. The assay contained 12 μl of SANA and 50 μl of the enzyme sample and was made up to 200 μl with 0.2 M Tris buffer. All reactions were prepared in 96-well Falcon 3097 flat-bottom microtiter plates (Beckton Dickinson) and carried out at room temperature. The optical density of each digest was recorded for 20 min, at 30 second intervals, at 405 nm using a Bio-Whittaker microplate reader 2001 (Bio-Whittaker).
as §3

corrected optical density at 405 nm, SANA ([1]; elastase 1 ng/ml)	corrected optical density at 405 nm, SANA ([1]; elastase 10 ng/ml)	corrected optical density at 405 nm, SANA ([1]; elastase 100 ng/ml)	corrected optical density at 405 nm, SANA ([1]; elastase 1000 ng/ml)	Molecule	corrected optical density at 450 nm, Succinylated Elastin (succinylated elastin; elastase 1 ng/ml)	corrected optical density at 450 nm, Succinylated Elastin (succinylated elastin; elastase 10 ng/ml)	corrected optical density at 450 nm, Succinylated Elastin (succinylated elastin; elastase 100 ng/ml)	corrected optical density at 450 nm, Succinylated Elastin (succinylated elastin; elastase 1000 ng/ml)	corrected absorbance at 450 nm, substrate Elastin (succinylated elastin; protease concentration 1)	corrected absorbance at 450 nm, substrate Elastin (succinylated elastin; protease concentration 10)	corrected absorbance at 450 nm, substrate Casein (succinylated casein; protease concentration 1)	corrected absorbance at 450 nm, substrate Casein (succinylated casein; protease concentration 10)	corrected absorbance at 450 nm, substrate Gelatin (succinylated gelatin; protease concentration 1)	corrected absorbance at 450 nm, substrate Gelatin (succinylated gelatin; protease concentration 10)
0	0	0.011 (±0.004)	0.129 (±0.026)	Elastase: Porcine pancreatic elastase (PPE; 297 units/mg) (EC 3.4.21.36) purchased from CalBiochem	0.0086 (±0.003)	0.01 (±0.001)	0.015 (±0.004)	0.054 (±0.006)	0.085	0.377	0.071	0.28	0.037	0.120
–	–	–	–	Trypsin: Protease from the Pierce Quanticleave protease assay kit II (13564 units/mg) (protein, UniProt P00760 24-246, looked up) Serine protease 1: IVGGYTCGANTVPYQVSLNSGYHFCGGSLINSQWVVSAAHCYKSGIQVRLGEDNINVVEGNEQFISASKSIVHPSYNSNTLNNDIMLIKLKSAASLNSRVASISLPTSCASAGTQCLISGWGNTKSSGTSYPDVLKCLKAPILSDSSCKSAYPGQITSNMFCAGYLEGGKDSCQGDSGGPVVCSGKLQGIVSWGSGCAQKNKPGVYTKVCNYVSWIKQTIASN	–	–	–	–	0.024	0.049	0.106	0.158	0.179	0.354

Reference: patent publication US6350586B2, “Method for isolating inhibitors of protease activity” (Long Island Jewish Medical Center, priority 1998, dated 2002)
